Assay results from PMC12111564, “Extended Family of Thiophosphoryl-Appended Pd(II) Pincer Complexes with a Deprotonated Amide Core: Synthesis and Biological Evaluation” (International Journal of Molecular Sciences, 2025).
One block for each compound: values may come before it.

Columns and labels:
[1] = test system: Groenewaldozyma auringiensis (VKM Y-2927); assay: Agar well diffusion, G. auringiensis; assay type: cell-based
Experimental: (§1) The microbial strains Bacillus subtillis (VKM B-501), Micrococcus luteus (VKM Ac-2230), and Groenewaldozyma auringiensis (VKM Y-2927) were used for antimicrobial activity tests. All strains were obtained from the All-Russian Collection of Microorganisms (VKM) at the Skryabin Institute of Biochemistry and Physiology of Microorganisms, Pushchino Scientific Center of Biological Research. B. subtilis and M. luteus were grown on the following medium (g/L): aminopeptide 60 mL; tryptone 5.0 g; yeast extract 1.0 g; soybean extract 30 mL; bacto-agar 15.0 g; final pH 7.2. G. auringiensis was grown on malt extract medium containing the following medium (g/L): malt extract 12.75; dextrin 2.75; glycerol 2.35; gelatin peptone 0.78; bacto-agar 15; final pH 5.4. The antimicrobial activity of ligand 17 and its cyclopalladated derivative 18 (both in the racemic form) was studied by the agar well diffusion method. The overnight grown culture of each strain (100 µL) was applied to the surface of the solid medium, then spread on agar plates using a glass spreader, and left for 30 min. The wells were cut in the culture plates using a sterilized glass tube (4 mm in diameter), and each compound sample was dissolved in DMSO to a final concentration of 0.25 or 2.5 mM (10 µL) and was placed in each well. After this, the plates were kept at room temperature for 3 h to improve the diffusion of the compounds and incubated at 28 °C for 24 h. DMSO (15%) was used as a negative control, while kanamycin (50 mg/mL) was used as a positive control. The antimicrobial activity was determined by measuring the inhibition zone around each well as a mean of three replicates.

[2] = test system: Micrococcus luteus (VKM Ac-2230); assay: Agar well diffusion, M. luteus; assay type: cell-based
Experimental: as §1

[3] = test system: Bacillus subtillis (VKM B-501); assay: Agar well diffusion, B. subtillis; assay type: cell-based
Experimental: as §1

[4] = test system: doxorubicin-resistant mammary epithelial cells HBL100/Dox; conditions: cited from earlier work
[5] = test system: doxorubicin-resistant subline of chronic myelogenous leukemia cells (K562/iS9); conditions: cited from earlier work
[6] = test system: ovarian adenocarcinoma (Scov3); assay: MTT cytotoxicity assay, Scov3; assay type: cell-based, human
Experimental: (§2) The cytotoxic activity of the complexes obtained was screened against several human solid and hematopoietic cancer cell lines using the conventional MTT assay. To evaluate their selectivity for cancerous over non-cancerous cells, analogous tests were performed with pseudonormal human embryonic kidney (HEK293) and breast epithelial (HBL100) cell lines.
(§3) The cytotoxicity of the compounds obtained was investigated on human colorectal carcinoma (HCT116), breast cancer (MCF7), prostate adenocarcinoma (PC3), glioblastoma (U251), ovarian adenocarcinoma (Scov3), chronic myelogenous leukemia (K562 and K562/iS9), multiple plasmacytoma (AMO1), and acute lymphoblastic leukemia (H9) cell lines, as well as human embryonic kidney (HEK293) and mammary epithelial (HBL100 and HBL100/Dox) cells used as non-cancerous cell lineages. All the cell lines were obtained from American Type Culture Collection (ATCC). The tested compounds were initially dissolved in DMSO. Cisplatin was obtained from a commercial source (as an infusion concentrate in natural saline solution). The experiments were performed using the conventional MTT assay (ICN Biomedicals, Eschwege, Germany) according to the previously published procedure.

[7] = test system: prostate adenocarcinoma (PC3); assay: MTT cytotoxicity assay, PC3; assay type: cell-based, human; conditions: 48 h exposure, read-out: IC50 ± SD, PC3
Experimental: as §2, §3

[8] = test system: human embryonic kidney (HEK293); assay: MTT cytotoxicity assay, HEK293; assay type: cell-based; conditions: 48 h exposure, non-cancerous cells, read-out: IC50 ± SD, HEK293
Experimental: as §2, §3

[9] = Stability in DMSO solution by 31P NMR monitoring; assay type: physicochemical; conditions: at least for several days
Excerpt: The identities and structures of both free amides 2–8 and their cyclopalladated derivatives were unambiguously confirmed based on the IR and multinuclear NMR spectroscopic data (including different 2D NMR techniques), as well as elemental analyses, which are presented in detail in Section 3 (Materials and Methods) and Figures S1–S31 in the Supporting Information (SI). The realization of metalation of the central secondary amide unit in the resulting complexes was supported by the lack of NH proton singlets in the ^1H NMR spectra, as well as the absence of amide II and amide A bands in the IR spectra. The coordination of the thiophosphoryl pendant arm was evidenced by a strong downfield shift of the phosphorus resonance (ΔδP = 8.1–17.4 ppm) and the displacement of the P=S bond stretches towards lower frequencies, which reached up to 65 cm^−1. The coordination of the additional N- or S-donor unit was indirectly indicated by considerable shifts of the signals of CH/CH3 protons or quaternary carbon nuclei located in the close proximity to the heteroatom (for example, ΔδH for the methyl substituent in the thioether group of 13a,b was more than 0.65 ppm, while a coordination shift of the proton signal, corresponding to the CH unit adjacent to the nitrogen atom of the pyridine ring of 9, composed 0.45 ppm).

[10] = test system: acute lymphoblastic leukemia (H9); assay: MTT cytotoxicity assay, H9; assay type: cell-based, human; conditions: 48 h exposure, read-out: IC50 ± SD, H9
Experimental: as §2
as §3, with “Cisplatin was obtained from a commercial source (as an infusion concentrate in natural saline solution).” left out

[11] = test system: chronic myelogenous leukemia (K562); assay: MTT cytotoxicity assay, K562; assay type: cell-based, human; conditions: 48 h exposure, read-out: IC50 ± SD, K562
Experimental: as §2, §3

breast cancer (MCF7) = assay: MTT cytotoxicity assay, MCF7; assay type: cell-based, human; conditions: 48 h exposure, read-out: IC50 ± SD, MCF7
Experimental: as §2, §3

[12] = test system: human colorectal carcinoma (HCT116); assay: MTT cytotoxicity assay, HCT116; assay type: cell-based; conditions: 48 h exposure, read-out: IC50 ± SD, HCT116
Experimental: as §2, §3

[13] = test system: doxorubicin-resistant mammary epithelial cells HBL100/Dox; assay: MTT cytotoxicity assay, HBL100/Dox; assay type: cell-based, human; conditions: 48 h exposure, doxorubicin-resistant clone, read-out: IC50 ± SD, HBL100/Dox
Experimental: as §2, §3

[14] = test system: multiple plasmacytoma (AMO1); assay: MTT cytotoxicity assay, AMO1; assay type: cell-based, human; conditions: 48 h exposure, read-out: IC50 ± SD, AMO1
Experimental: as §2, §3

[15] = test system: mammary epithelial cells HBL100; assay: MTT cytotoxicity assay, HBL100; assay type: cell-based, human; conditions: 48 h exposure, non-cancerous cells, read-out: IC50 ± SD, HBL100
Experimental: as §2, §3

[16] = test system: doxorubicin-resistant subline of chronic myelogenous leukemia cells (K562/iS9); assay: MTT cytotoxicity assay, K562/iS9; assay type: cell-based, human; conditions: 48 h exposure, read-out: IC50 ± SD, K562/iS9
Experimental: as §2, §3

glioblastoma (U251) = assay: MTT cytotoxicity assay, U251; assay type: cell-based, human
Experimental: as §2, §3

[17] = agar well diffusion, 0.25 or 2.5 mM, racemic form

SMILES: CC(C)C(NC(=O)c1ccccn1)P(=S)(c1ccccc1)c1ccccc1 (stereo not shown) [Compound 17]
inhibitory effect on microorganisms, G. auringiensis [1, 17]: did not exert any inhibitory effect
inhibitory effect on microorganisms, M. luteus [2, 17]: did not exert any inhibitory effect
inhibitory effect on microorganisms, B. subtillis [3, 17]: did not exert any inhibitory effect

SMILES: NC[C@H]1O[C@H](O[C@H]2[C@H](O)[C@@H](O[C@H]3O[C@H](CO)[C@@H](O)[C@H](N)[C@H]3O)[C@H](N)C[C@@H]2N)[C@H](O)[C@@H](O)[C@@H]1O [Km, kanamycin, reference compound]
Inhibition Zone, G. auringiensis (VKM Y-2927) ([1]; 50 mg/mL, positive control): 0 mm
Inhibition Zone, M. luteus (VKM Ac-2230) ([2]; 50 mg/mL, positive control): 15.0 ± 1.0 mm
Inhibition Zone, B. subtillis (VKM B-501) ([3]; 50 mg/mL, positive control): 10.0 ± 0.8 mm

SMILES: COc1cccc2c1C(=O)c1c(O)c3c(c(O)c1C2=O)C[C@@](O)(C(=O)CO)C[C@@H]3O[C@H]1C[C@H](N)[C@H](O)[C@H](C)O1 [doxorubicin]
times less active against the resistant clone (HBL100/Dox vs HBL100) [4]: more than 80 times
factor of decrease in efficiency, K562/iS9 vs parental K562 [5]: 20

stability in solution (DMSO) [9]: stable in solution
SMILES: O=C1c2cc(Cl)cc[n+]2[Pd-2]2([Cl])[S+]=P(c3ccccc3)(c3ccccc3)C(c3ccccc3)[N]12 (racemic) [Compound 9, [κ^3-S,N,N-(L)Pd(II)Cl] complex]
IC50 [6]: 8 ± 0.7 µM
IC50 [7]: 8 ± 0.5 µM
IC50 [8]: 10 ± 4 µM
IC50 [10]: 3.2 ± 0.4 µM
IC50 [11]: 8 ± 1.5 µM
IC50 (breast cancer (MCF7)): 6.2 ± 2 µM
IC50 [12]: 7 ± 0.5 µM
IC50 [13]: 10.5 ± 1.5 µM
IC50 [14]: 2.4 ± 0.6 µM
IC50 [15]: 6.5 ± 1.5 µM
IC50 [16]: 6.2 ± 1.8 µM
IC50 (glioblastoma (U251)): 9 ± 1 µM

SMILES: N.N.[Cl][Pt][Cl] [cisplatin, reference compound]
IC50 [7]: 16 ± 3 µM
IC50 [8]: 12.5 ± 1.5 µM
IC50 [11]: 15.5 ± 0.5 µM
IC50 (breast cancer (MCF7)): 25 ± 4 µM
IC50 [12]: 18 ± 2 µM
IC50 [13]: 23.6 ± 3.6 µM
IC50 [14]: 3.2 ± 0.6 µM
IC50 [15]: 14.6 ± 3.6 µM
IC50 [16]: 16 ± 2 µM

SMILES: C[S+]1CC(=O)[N]2C(c3ccccc3)P(c3ccccc3)(c3ccccc3)=[S+][Pd-2]21[Cl] (racemic) [Compound 13a, [κ^3-S,N,S-(L)Pd(II)Cl] complex]
IC50 [7]: 30 ± 2.5 µM
IC50 [8]: 22 ± 6 µM
IC50 [10]: 4 ± 0.6 µM
IC50 [11]: 14.2 ± 2.2 µM
IC50 (breast cancer (MCF7)): 31 ± 6 µM
IC50 [12]: 17 ± 2 µM
IC50 [13]: 54 ± 5.6 µM
IC50 [14]: 4.2 ± 0.3 µM
IC50 [15]: 32 ± 6 µM
IC50 [16]: 15.2 ± 1.8 µM

SMILES: C[S+]1CC(=O)[N]2CP(c3ccccc3)(c3ccccc3)=[S+][Pd-2]21[Cl] (stereo not drawn) [Compound 13b, [κ^3-S,N,S-(L)Pd(II)Cl] complex]
IC50 [7]: 30 ± 2 µM
IC50 [8]: 34 ± 2 µM
IC50 (breast cancer (MCF7)): 40 ± 5 µM
IC50 [12]: 23 ± 7 µM
IC50 [13]: > 60 µM
IC50 [15]: 52 ± 4 µM

SMILES: O=C1c2ccc3ccccc3[n+]2[Pd-2]2([Cl])[S+]=P(c3ccccc3)(c3ccccc3)C[N]12 (stereo not shown) [Compound 10b, [κ^3-S,N,N-(L)Pd(II)Cl] complex]
IC50 [7]: 23 ± 1 µM
IC50 [8]: 20 ± 4 µM
stability in solution (DMSO) [9]: stable in solution
IC50 (breast cancer (MCF7)): 31 ± 2 µM
IC50 [12]: 14 ± 4 µM
IC50 [13]: 46 ± 1.4 µM
IC50 [15]: 34.2 ± 2.8 µM

SMILES: O=C1c2cccc3ccc[n+](c23)[Pd-2]2([Cl])[S+]=P(c3ccccc3)(c3ccccc3)C[N]12 (stereo not shown) [Compound 11, [κ^3-S,N,N-(L)Pd(II)Cl] complex]
IC50 [7]: 31 ± 1 µM
IC50 [8]: 41 ± 4 µM
IC50 (breast cancer (MCF7)): 46 ± 4 µM
IC50 [12]: 18 ± 2 µM
IC50 [13]: 41 ± 1 µM
IC50 [15]: 29 ± 5 µM

SMILES: C[S+]1c2ccccc2C(=O)[N]2C(c3ccccc3)P(c3ccccc3)(c3ccccc3)=[S+][Pd-2]21[Cl] (racemic) [Compound 14, [κ^3-S,N,S-(L)Pd(II)Cl] complex]
IC50 [7]: 4.2 ± 1.4 µM
IC50 [8]: 4.9 ± 1.5 µM
IC50 [10]: 2.3 ± 0.5 µM
IC50 [11]: 2.1 ± 0.2 µM
IC50 (breast cancer (MCF7)): 9.2 ± 0.9 µM
IC50 [12]: 4.5 ± 1.1 µM
IC50 [13]: 2.1 ± 0.3 µM
IC50 [14]: 1.2 ± 0.3 µM
IC50 [15]: 8.4 ± 0.5 µM
IC50 [16]: 1.7 ± 0.2 µM

SMILES: O=C1c2ccc3ccccc3[n+]2[Pd-2]2([Cl])[S+]=P(c3ccccc3)(c3ccccc3)C(c3ccccc3)[N]12 (racemic) [Compound 10a, [κ^3-S,N,N-(L)Pd(II)Cl] complex]
IC50 [7]: 33 ± 3 µM
IC50 [8]: 15 ± 4 µM
IC50 (breast cancer (MCF7)): > 65 µM
IC50 [12]: 22 ± 2 µM
IC50 [13]: > 60 µM
IC50 [15]: > 60 µM

SMILES: O=C1c2sc3ccccc3[n+]2[Pd-2]2([Cl])[S+]=P(c3ccccc3)(c3ccccc3)C(c3ccccc3)[N]12 (racemic) [Compound 12, [κ^3-S,N,N-(L)Pd(II)Cl] complex]
IC50 [7]: 10 ± 2.8 µM
IC50 [8]: 6.5 ± 2.2 µM
IC50 [10]: 2.2 ± 0.7 µM
IC50 [11]: 4.2 ± 0.8 µM
IC50 (breast cancer (MCF7)): 19 ± 4.2 µM
IC50 [12]: 11.3 ± 3.1 µM
IC50 [13]: 6.7 ± 1.5 µM
IC50 [14]: 3.7 ± 0.7 µM
IC50 [15]: 12 ± 3.5 µM
IC50 [16]: 2 ± 0.4 µM
